Patent publication US20090264447A1, “Pyrimidine compounds for combating pathogenic fungi and cancer” (BASF SE, priority 2006, published 2009)

Tested on: HeLa B cells
Experiment: Cell cycle inhibition in HeLa cells (FACS, G0/G1 to G2/M ratio)
Format: cell-based
Conditions: read-out: IC50 (concentration at which 50% of the cells are inhibited in their cell cycle), 20 h incubation with compound
Description: HeLa B cells were cultivated in DMEM (Life Technologies Cat. No. 21969-035) containing fetal calf serum (FCS, Life Technologies Cat. No. 10270-106) in 180 cm^2 containers at 37° C., 92% humidity and 7% CO2.
5×10^4 cells per well were added into a 24-well plate. After 20 h, the compounds to be tested were added such that the final concentration was 1×10^−6, 3.3×10^−7, 1.1×10^−7, 3.7×10^−8, 1.2×10^−8 and 1×10^−9 M in a final volume of 500 μl. 6 wells contained only DMSO as control. The treated cells were incubated as described above for a further 20 h. The cells were then examined under the microscope for dead cells. The 24-well plate was then centrifuged at 1200 rpm at 20° C., an acceleration in position 7 and the brake position 5 (Eppendorf centrifuge 5804R) for 5 min.
The supernatant was removed and the cells were lysed with 0.5 ml of RNase buffer (10 mM sodium citrate, 0.1% Nonidet NP40, 50 μg/ml RNase, 10 μg/ml propidium iodide) per well. The plates were then incubated at room temperature in the dark for at least 30 min, and the samples were then transferred into FACS tubes. These were measured in an FACS instrument (Beckton Dickinson) with the following settings:
Instrument settings at the FACS Calibur:
The ratio of cells in the G0/G1 phase to those in the G2/M phase was calculated and compared to the value for the control (DMSO).

Compound | IC50 [nM]
COCCCOc1cc(F)c(-c2c(Cl)nc(-n3ccnn3)nc2NC(C)C(C)(C)C)c(F)c1 (stereo not drawn) [Example 18] | 29
CC1CCN(c2nc(C#N)nc(Cl)c2-c2c(F)cc(OCCCOc3cc(Cl)ncn3)cc2F)CC1 [Example 32] | 570
COCCCOc1cc(F)c(-c2c(Cl)nc(-n3cncn3)nc2NC(C)C(C)(C)C)c(F)c1 (stereo not drawn) [Example 24] | 42
CNCCCOc1cc(F)c(-c2c(Cl)nc(C(=O)c3ccc(C)cc3)nc2N2CCCCCC2)c(F)c1 [Example 39] | 580
CC1CCN(c2nc(-n3cccn3)nc(Cl)c2-c2c(F)cc(OCCCN(C)C(=O)OC(C)(C)C)cc2F)CC1 [Example 11] | 570
CC1CCN(c2nc(C#N)nc(Cl)c2-c2c(F)cc(OCCCN(C)C)cc2F)CC1 [Example 27] | 220
CNCCCOc1cc(F)c(-c2c(Cl)nc(-n3cncn3)nc2N2CCC(C)CC2)c(F)c1 [Example 21] | 18
COCCCOc1cc(F)c(-c2c(Cl)nc(C#N)nc2NC(C)C(C)C)c(F)c1 (stereo not drawn) [Example 36] | 59
COCCCOc1cc(F)c(-c2c(Cl)nc(-n3cccn3)nc2NC(C)C(C)C)c(F)c1 (stereo not drawn) [Example 16] | 26
COCCCOc1cc(F)c(-c2c(Cl)nc(C#N)nc2N2CCC(C)CC2)c(F)c1 [Example 31] | 120
CC1CCN(c2nc(-n3cccn3)nc(Cl)c2-c2c(F)cc(OCCCOc3cc(Cl)ncn3)cc2F)CC1 [Example 12] | 470
CC(Nc1nc(C#N)nc(Cl)c1-c1c(F)cc(OCCCCl)cc1F)C(C)(C)C (stereo not drawn) [Example 37] | 280
COCCCOc1cc(F)c(-c2c(Cl)nc(-n3nccn3)nc2NC(C)C(C)C)c(F)c1 (stereo not drawn) [Example 19] | 26
CON=C(N)c1nc(Cl)c(-c2c(F)cc(OCCCN(C)C)cc2F)c(N2CCC(C)CC2)n1 [Example 2] | 27
CC(C)C(C)Nc1nc(C#N)nc(Cl)c1-c1c(F)cc(OCCCCl)cc1F (stereo not drawn) [Example 38] | 330
COCCCOc1cc(F)c(-c2c(Cl)nc(-n3nccn3)nc2NC(C)C(C)(C)C)c(F)c1 (stereo not drawn) [Example 20] | 27
CC1CCN(c2nc(-n3cncn3)nc(Cl)c2-c2c(F)cc(OCCCN(C)C(=O)OC(C)(C)C)cc2F)CC1 [Example 22] | 290
COCCCOc1cc(F)c(-c2c(Cl)nc(C#N)nc2NC(C)C(C)(C)C)c(F)c1 (stereo not drawn) [Example 35] | 190
COCCCOc1cc(F)c(-c2c(Cl)nc(-n3ccnn3)nc2NC(C)C(C)C)c(F)c1 (stereo not drawn) [Example 17] | 32
COCCCOc1cc(F)c(-c2c(Cl)nc(C(N)=NOC)nc2NC(C)C(C)(C)C)c(F)c1 (stereo not drawn) [Example 7] | 56
COCCCOc1cc(F)c(-c2c(Cl)nc(-n3cccn3)nc2NC(C)C(C)(C)C)c(F)c1 (stereo not drawn) [Example 15] | 32
CNCCCOc1cc(F)c(-c2c(Cl)nc(C#N)nc2N2CCCCCC2)c(F)c1 [Example 33] | 480
COCCCOc1cc(F)c(-c2c(Cl)nc(-n3cncn3)nc2NC(C)C(C)C)c(F)c1 (stereo not drawn) [Example 25] | 42
CC1CCN(c2nc(-n3cncn3)nc(Cl)c2-c2c(F)cc(OCCCOc3cc(Cl)ncn3)cc2F)CC1 [Example 23] | 330
